Source: PubChem BioAssay (NCI)
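Cells were grown in 96-well plates and exposed to each compound for 48 hours at five concentrations; endpoints were interpolated linearly between bracketing concentrations, or set to the highest concentration if not reached. The concentration for 50% growth inhibition is given as GI50. TGI: concentration producing complete growth inhibition.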

Experiments:
Experiment in all cases: inhibition of tumour cell growth, NCI panel, 48 h
[1] = test system: A549 NSCLC
[2] = test system: HCC-2998 colon
[3] = test system: HCT-116 colon
[4] = test system: HCT-15 colon
[5] = test system: HOP-92 NSCLC
[6] = test system: SK-MEL-2 melanoma
[7] = test system: SN12C renal
[8] = test system: MDA-MB-435
[9] = test system: PC-3 prostate
[10] = test system: BT-549 breast

| SMILES | TGI [1] | TGI [2] | TGI [3] | TGI [4] | TGI [5] | TGI [6] | TGI [7] | GI50 [1] | GI50 [2] | GI50 [3] | GI50 [4] | GI50 [5] | GI50 [8] | TGI [8] | GI50 [9] | TGI [9] | GI50 [7] | GI50 [10] | TGI [10] | GI50 [6] |
| --- | --- | --- | --- | --- | --- | --- | --- | --- | --- | --- | --- | --- | --- | --- | --- | --- | --- | --- | --- | --- |
| Cc1cc2c(C)nn(Cc3ccccc3)c2c(C(N)=O)c1C | > 100 µM | > 100 µM | > 100 µM | > 100 µM | > 100 µM | > 100 µM | > 100 µM | – | – | – | – | – | – | – | – | – | – | – | – | – |
| O=C(Nc1ccncc1)C(=O)c1cn(Cc2ccc(Cl)cc2)c2ccccc12 | > 100 µM | > 100 µM | > 100 µM | > 100 µM | > 75.1 µM | – | > 100 µM | 0.399 µM | 0.114 µM | 0.048 µM | 0.0408 µM | 0.0489 µM | < 0.01 µM | 0.044 µM | 0.0419 µM | > 100 µM | 0.0725 µM | – | – | – |
| CCCc1cc(=O)[nH]c(-n2nc(C)cc2C)n1 | > 100 µM | > 100 µM | 67.3 µM | > 100 µM | – | 63 µM | > 100 µM | 2.71 µM | 14.3 µM | 3.3 µM | 1.75 µM | – | 4.67 µM | 32.4 µM | 4.29 µM | > 100 µM | 4.75 µM | 6.86 µM | > 100 µM | 13 µM |
| O=[N+]([O-])c1ccc2c(c1)Cc1cc(N=Cc3ccc4c(c3)OCO4)ccc1-2 | > 100 µM | – | > 100 µM | > 100 µM | > 100 µM | > 100 µM | > 100 µM | – | – | – | – | – | – | > 100 µM | – | > 100 µM | – | – | > 100 µM | – |
| O=C1Nc2nc3ccccc3n2N=C2CCCC12 (stereo unspecified) | > 100 µM | > 100 µM | > 100 µM | > 100 µM | – | > 100 µM | > 100 µM | – | – | – | – | – | – | – | – | – | – | – | – | – |
| NC(=O)c1ccc(I)c(N=O)c1 | > 100 µM | > 100 µM | 32.8 µM | > 100 µM | > 100 µM | 87.8 µM | > 100 µM | 42.1 µM | 67.5 µM | 18.6 µM | 30 µM | 67.1 µM | 29.6 µM | 89.5 µM | – | – | 55.8 µM | 40.3 µM | > 100 µM | 31.3 µM |
| COc1ccc(-c2nc(-c3ccccc3)c(-c3ccccc3)[nH]2)cc1OC1CCCC1 | > 100 µM | > 100 µM | > 100 µM | > 100 µM | – | > 100 µM | > 100 µM | > 100 µM | > 100 µM | > 100 µM | 13.2 µM | – | > 100 µM | > 100 µM | > 100 µM | > 100 µM | > 100 µM | > 100 µM | > 100 µM | > 100 µM |
| C[C@]12CCC(=O)C=C1CC[C@@H]1C2CC[C@]2(C)Nc3c(cnn3-c3ccccc3)CC12 (stereo partly specified) | > 100 µM | > 100 µM | > 100 µM | > 100 µM | – | > 100 µM | – | – | – | – | – | – | – | – | – | – | – | – | – | – |
| COC1OC(CBr)C(OC(=O)c2ccccc2)C(O)C1Br (stereo unspecified) | > 100 µM | > 100 µM | > 100 µM | > 100 µM | > 100 µM | – | > 100 µM | – | – | – | – | – | – | – | – | – | – | – | – | – |
| O=C1C2C3C=C4c5ccccc5N(c5ccccc5)C4(C2C(=O)N1c1ccc(Cl)cc1)[C@H]1C(=O)N(c2ccc(Cl)cc2)C(=O)[C@@H]31 (stereo partly specified) | > 100 µM | – | > 100 µM | > 100 µM | > 100 µM | > 100 µM | > 100 µM | – | – | – | – | – | – | – | – | – | – | – | – | – |
| CCC1CN2C(=N1)c1ccccc1-c1cc(Cl)ccc12 (stereo unspecified) | 15.6 µM | 16.3 µM | 10.6 µM | 11.5 µM | – | 7.77 µM | 17.4 µM | 2.24 µM | 4.17 µM | 2.53 µM | 2.86 µM | – | 4.39 µM | 16.2 µM | 2.82 µM | 11.8 µM | 2.97 µM | 13.2 µM | 50.3 µM | 2.75 µM |
| C1COCCN1.C1COCCN1.NC1CCCCC1N.[Cl-].[Pt+2] (stereo unspecified) | > 100 µM | > 100 µM | > 100 µM | – | > 100 µM | > 100 µM | > 100 µM | > 100 µM | > 100 µM | > 100 µM | – | > 100 µM | – | – | – | – | > 100 µM | – | – | > 100 µM |
| Cc1ccc(SSc2ccc(C)cc2C(=O)O)c(C(=O)O)c1 | > 100 µM | – | – | – | > 100 µM | > 100 µM | > 100 µM | – | – | – | – | – | – | – | – | – | – | – | – | – |
| O=C(N/C(=C/c1ccc(Cl)cc1Cl)c1nc2ccccc2s1)c1ccccc1 | 53.8 µM | – | > 100 µM | 13.3 µM | > 100 µM | 36.1 µM | 23 µM | – | – | – | – | – | – | 30.2 µM | – | 38.9 µM | – | – | 64.8 µM | – |
| COc1cccc(C2=C(c3c(C)n(C)c4ccccc34)C(=O)NC2=O)c1 | > 25 µM | > 25 µM | > 25 µM | > 25 µM | – | > 25 µM | > 25 µM | 16.4 µM | > 25 µM | 19.7 µM | 12.1 µM | – | 7.33 µM | > 25 µM | 16.3 µM | > 25 µM | > 25 µM | > 21.7 µM | > 25 µM | > 25 µM |
| CCn1cc(C(=O)N/N=C/c2ccccc2)c(=O)c2cc(F)c(N3CCNC(C)C3)c(F)c21 (stereo unspecified) | – | 3.32 µM | – | 2.82 µM | 2.46 µM | – | – | – | 1.8 µM | – | 1.45 µM | 1.19 µM | 1.91 µM | 3.36 µM | 1.6 µM | 3.01 µM | – | 1.6 µM | 3 µM | – |
| COc1cccc2c1ccc1nc3cccc(C(=O)N[C@H](C)CN(C)C)c3nc12 | 1.99 µM | 0.298 µM | 0.508 µM | 10.8 µM | – | 0.643 µM | 11.7 µM | 0.0402 µM | 0.108 µM | 0.0379 µM | 0.053 µM | – | 0.0976 µM | 0.986 µM | 0.0819 µM | 2.13 µM | 0.0879 µM | 0.795 µM | 2.93 µM | 0.175 µM |
| Cc1cc(NCCCCCCNc2cc(C)nc3cc(N(C)C)ccc23)c2ccc(N(C)C)cc2n1 | – | > 100 µM | > 100 µM | > 100 µM | – | > 100 µM | > 100 µM | – | – | – | – | – | – | – | – | – | – | – | – | – |
| c1ccc(C(c2ccccc2)c2cccnc2)cc1 | > 100 µM | > 100 µM | > 100 µM | > 100 µM | – | > 100 µM | > 100 µM | – | – | – | – | – | – | – | – | – | – | – | – | – |
